Reference: patent US20250099427A1, “Drug and Method of Treating or Preventing Renal Disease Using Drug” (Showa University, priority 2018, published 2025)

Legend:
[1] = tested on: Acute Renal Failure Animal Model; assay: Test using acute renal failure animal model (renal ischemia and reperfusion), renal function parameters; assay type: in vivo, mouse; conditions: for Cer: creatinine clearance; for FENa: fractional excretion of sodium; for KW: kidney weight
Source text: A male ddY strain mouse (30 g) was used as an experimental animal. Under anesthesia with isoflurane, the right flank was incised about 2 cm to expose the kidney. After ligating the renal arteries and veins and the ureter, the right kidney was isolated.
A recovery period of 2 weeks was given, and then an acute renal failure mouse model was produced. Under anesthesia with isoflurane, the left abdomen was incised about 3 cm to expose the left kidney, and the fat around the renal arteries and veins was removed. The blood flow in the left renal arteries and veins was blocked using an atraumatic clip, and the kidney was left in ischemia for 45 minutes. The blood flow was then reperfused by removing the atraumatic clip, the kidney was returned to the abdominal cavity, and the flank was sutured. Mice similarly subjected to the steps other than the ischemia and reperfusion steps using the atraumatic clip were designated as a sham group (eight mice).
After 15 minutes of the initiation of ischemia, the vehicle, SMTP-7, SMTP-27, SMTP-44D, and edaravone were continuously administered to the femoral vein for 30 minutes.
24 hours after the ischemia and reperfusion processes, urine was collected for 24 hours using a metabolic cage, and the urinary output (UF; μL/min/kg) was measured. During collecting urine, only water was freely given. After urine collection, the body weight of each mouse was measured, and blood was collected from the abdominal aorta under anesthesia with isoflurane. After blood collection, the left kidney was isolated and the fat was removed in physiological saline. The kidney weight (KW; mg/g) was measured, and then the kidney was fixed in a 10% neutral buffered formalin solution for Hematoxylin Eosin (HE) staining.
The collected blood was centrifuged at 800×g for 15 minutes at 25° C. to collect serum. Further, the urine collected using a metabolic cage was also used to evaluate renal function. In order to evaluate parameters in the serum, blood urea nitrogen (BUN; mg/dL) was measured using a QuantiChrom Urea Assay Kit (Funakoshi Co., Ltd.). Serum creatinine concentration (Scr; mg/dL) and urinary creatinine concentration (Ucr; mg/dL) were measured using LabAssay (trademark) Creatinine (manufactured by Wako Pure Chemical Industries, Ltd.), and creatinine clearance (Ccr; mL/min/kg) was calculated. The concentrations of sodium in the serum and urine were measured using Fuji Dry Chem 7000 (manufactured by FUJIFILM Corporation), and fractional excretion of sodium (FENa; %) was calculated. Urinary albumin concentration (Ualb; mg/hr/kg) was measured using Albwel M (manufactured by Cosmo Bio Co., Ltd.).
In Table 11, the experimental results are expressed in mean±standard error in eight mice in each group. For comparison among multiple groups, firstly, one-way analysis of variance (ANOVA) was conducted, and then a Bonferroni test was conducted, if significant difference was recognized. Significant difference was recognized with a significance level of less than 5% (P<0.05).

[2] = tested on: Chronic Renal Failure Animal Model; assay: Test using chronic renal failure animal model (nephrectomy + acetic acid application), renal function parameters; assay type: in vivo, mouse; conditions: mean±standard error; for Urinary output / Urinary protein: 24 h urine 12 weeks after acetic acid; for BUN / sCr: evaluated 12 weeks after acetic acid; for Ccr: creatinine clearance, 12 weeks after acetic acid
Experimental: A male ddY strain mouse (body weight: 30 g to 40 g) was used. Under anesthesia with isoflurane, the right flank of the mouse was incised, the renal arteries and veins were ligated, and then the right kidney was isolated. After suturing, acrinol was applied to the suture site as a disinfection treatment, and enrofloxacin was subcutaneously administered at 5 mg/kg as a preventive measure against infection, and acetaminophen was subcutaneously administered at 75 mg/kg as an analgesic treatment. After a recovery period of 3 to 4 weeks, the left abdomen of the mouse was incised, 100% acetic acid was applied to both sides of the kidney 10 times. This was defined as one course, and two courses were conducted at 5 minute intervals. After suturing, postoperative treatment was conducted in the same manner as in the removal of one of the kidneys. Considering the effect of surgery, a sham group to which acetic acid was not applied was provided.
4 weeks after the application of acetic acid, SMTP-7 was administered at a dose of 10 mg/kg or 30 mg/kg. The administration was carried out three times a week for 8 consecutive weeks by intraperitoneal administration. In addition, physiological saline was similarly administered to the sham group (without acetic acid application) and the Control group (with acetic acid application).
12 weeks after the application of acetic acid, urine was collected for 24 hours using a metabolic cage, and the urinary output was measured. During collecting urine, water was freely given. After urine collection, blood was collected from the descending aorta, the collected blood was centrifuged at 3000 rpm for 15 minutes, serum was separated, and BUN (urea nitrogen) and sCr (serum creatinine value) were measured. Further, protein and creatinine in the urine were also measured to calculate creatinine clearance (Ccr). BUN was measured using Urea B-test Wako (manufactured by Wako Pure Chemical Industries, Ltd.) and a QuantiChrom Urea Assay Kit (manufactured by Funakoshi Co., Ltd.), sCr was measured using Lab Assay Creatinine (manufactured by Wako Pure Chemical Industries, Ltd.), and urinary protein was measured using a BCA Protein assay kit (Thermo Fisher Scientific).
Renal function was evaluated by measuring BUN, sCr, urinary output, and urinary protein. In addition, urinary creatinine was measured to calculate creatinine clearance (Ccr).
In Table 9, the experimental results are expressed in mean±standard error. With reference to statistically significant difference, an unpaired test between two groups (Student's t-test) was conducted for comparison between two groups, and one-way analysis of variance was conducted and then a Dunnett test was conducted for comparison among multiple groups. In all cases, a significance level of 5% or less (P<0.05) was regarded as significant difference.
The experiment and evaluation were carried out in the same manner as in the SMTP-7 (30 mg/kg) administration group, except that edaravone (30 mg/kg) was administered instead of SMTP-7 in the SMTP-7 (30 mg/kg) administration group.

[3] = 0.01 mg/kg continuous femoral vein 30 min from 15 min after start of 45 min ischemia, mean±SE, 8 mice
[4] = 0.1 mg/kg continuous femoral vein 30 min from 15 min after start of 45 min ischemia, mean±SE, 8 mice
[5] = 0.1 mg/kg, acute renal failure model
[6] = 1 mg/kg continuous femoral vein 30 min from 15 min after start of 45 min ischemia, mean±SE, 8 mice
[7] = 1 mg/kg, acute renal failure model
[8] = 10 mg/kg continuous femoral vein 30 min from 15 min after start of 45 min ischemia, mean±SE, 8 mice
[9] = 0.01 mg/kg continuous femoral vein 30 min from 15 min after start of 45 min ischemia, mean±SE, 8 mice, 0.01 mg/kg
[10] = 0.1 mg/kg continuous femoral vein 30 min from 15 min after start of 45 min ischemia, mean±SE, 8 mice, 0.1 mg/kg
[11] = 1 mg/kg continuous femoral vein 30 min from 15 min after start of 45 min ischemia, mean±SE, 8 mice, 1 mg/kg
[12] = 10 mg/kg continuous femoral vein 30 min from 15 min after start of 45 min ischemia, mean±SE, 8 mice, 10 mg/kg
[13] = 10 mg/kg intraperitoneal three times a week for 8 weeks from 4 weeks after acetic acid
[14] = 30 mg/kg intraperitoneal three times a week for 8 weeks from 4 weeks after acetic acid

## CC(C)=CCC/C(C)=C/CC[C@@]1(C)Oc2c(c(O)cc3c2CN(CCC[C@@H](C(=O)O)N2Cc4c(cc(O)c5c4O[C@](C)(CC/C=C(\C)CCC=C(C)C)[C@@H](O)C5)C2=O)C3=O)C[C@@H]1O [SMTP-7]
[1]; [3]
  BUN: 108.8 ± 26.6 mg/dL
  Scr: 0.9 ± 0.2 mg/dL
[1]; 0.01 mg/kg, acute renal failure model
  Ualb: 1.8 ± 0.3 mg/h/kg
[1]; [4]
  BUN: 125.8 ± 28.7 mg/dL
  Scr: 1.0 ± 0.3 mg/dL
[1]; [5]
  UF: 0.0825 ± 0.0088 mL/min/kg
  Ualb: 1.1 ± 0.3 mg/h/kg
[1]; [6]
  BUN: 66.0 ± 11.3 mg/dL
  Scr: 0.5 ± 0.1 mg/dL
[1]; [7]
  UF: 0.0623 ± 0.0134 mL/min/kg
  Ualb: 0.7 ± 0.2 mg/h/kg
[1]; [8]
  BUN: 44.1 ± 2.9 mg/dL
  Scr: 0.4 ± 0.0 mg/dL
[1]; 10 mg/kg, acute renal failure model
  Ualb: 0.5 ± 0.1 mg/h/kg
[1]; [9]
  Cer: 1.6 ± 0.3 mL/min/kg
  FENa: 1.8±0.8%
  KW: 14.5 ± 0.6 mg/g
[1]; [10]
  Cer: 1.7 ± 0.4 mL/min/kg
  FENa: 2.3±1.0%
  KW: 13.6 ± 1.0 mg/g
[1]; [11]
  Cer: 2.3 ± 0.4 mL/min/kg
  FENa: 1.0±0.2%
  KW: 11.2 ± 0.8 mg/g
[1]; [12]
  Cer: 3.1 ± 0.2 mL/min/kg
  FENa: 0.7±0.1%
  KW: 11.1 ± 0.4 mg/g
[1]; urinary albumin, 0.01 mg/kg continuous femoral vein 30 min from 15 min after start of 45 min ischemia, mean±SE, 8 mice
  Ualb: 1.8 ± 0.3 mg/h/kg
[1]; urinary albumin, 0.1 mg/kg continuous femoral vein 30 min from 15 min after start of 45 min ischemia, mean±SE, 8 mice
  Ualb: 1.1 ± 0.3 mg/h/kg
[1]; urinary albumin, 1 mg/kg continuous femoral vein 30 min from 15 min after start of 45 min ischemia, mean±SE, 8 mice
  Ualb: 0.7 ± 0.2 mg/h/kg
[1]; urinary albumin, 10 mg/kg continuous femoral vein 30 min from 15 min after start of 45 min ischemia, mean±SE, 8 mice
  Ualb: 0.5 ± 0.1 mg/h/kg
[2]; [13]
  Urinary output: 0.0986 ± 0.022 mL/min/kg
  Urinary protein: 968 ± 137 mg/kg/day
  BUN: 80.5 ± 13.3 mg/dL
  sCr: 0.71 ± 0.07 mg/dL
  Ccr: 1.95 ± 0.23 mL/min/kg
[2]; [14]
  Urinary output: 0.0537 ± 0.0128 mL/min/kg
  Urinary protein: 527 ± 96.2 mg/kg/day
  BUN: 55.1 ± 1.57 mg/dL
  sCr: 0.60 ± 0.05 mg/dL
[2]; 30 mg/kg intraperitoneal three times a week for 8 weeks from 4 weeks after acetic acid, 30 mg/kg
  Ccr: 2.66 ± 0.37 mL/min/kg
